What was measured:
human lung tumors = human lung tumors implanted into rats and mice; cited from earlier work
[1] = Oral absorption of CBD in rats; type: in vivo, Sprague drawly rats; details: gavage to the stomach, 12 mg/kg, plasma CBD by LC-MS
Protocol: A tablet of composition of 5A was diluted with water of about 40° C. before administration to the rats to obtain CBD concentration of 12 mg/ml and to obtain the cannabinoid oil-in-water emulsion. The emulsion was administered in gavage to the stomach of Sprague drawly rats weighing 220 gr to 250 gr at 12 mg/kg. Blood sample was obtained at various time points after the oral administration and plasma separated. The CBD concentration in the plasma was tested by LC-MS and the area under the curve calculate. Group one was administered with 12 mg/kg of pure CBD dissolved in “solvent” propylene glycol:ethanol 1:1 solution. Group two received the test formulation.

CCCCCc1cc(O)c2c(c1)OC(C)(C)[C@@H]1CCC(C)=C[C@@H]21 [THC, tetrahydrocannabinol]
reduction in tumor mass and volume (human lung tumors): ≤ 50%
reduction of cancerous lesions in the lungs (human lung tumors): around 60%

C=C(C)[C@@H]1CCC(C)=C[C@H]1c1c(O)cc(CCCCC)cc1O [CBD, cannabidiol]
Cmax ([1]; Sprague-Dawley, rat, po): 38 ng/mL
AUC (Area Under the Curve of CBD in rats' plasma) [1]: 90 ± 12 ng/mL/h
